Measurements as given in patent publication US20070027150A1 (priority 2005, published 2007).

Each compound was assayed against His-tagged N-terminal ATP binding domain (amino acid residues 9-236) of HSP90α (Homo sapiens, UniProt P07900) (assay: HSP90 inhibitor binding potency: TRF competition binding assay). Settings: Table I; read-out: Hsp90 IC50 Range.
Description: HSP90 Inhibitor Binding Potency: TRF Binding Assay
In this example, the binding potency of HSP90 inhibitors as measured by a TRF binding assay is described.
TRF competition binding assays were performed to determine the binding potency (IC50 values) of HSP90 inhibitors. Purified His-tagged N-terminal ATP binding domain (amino acid residues 9-236) of HSP90α (HSP90α GeneID: 3320; mRNA Sequence NM_005348) was incubated for two hours at room temperature in binding buffer (50 mM HEPES, 6 mM MgCl2, 20 mM KCl and 0.1% BSA) with biotinylated radicicol and progressively higher concentrations of the competing compounds. A fraction of the mixture was transferred to capture plates (coated with streptavidin) and incubated for one hour at room temperature. After washing with DELFIA wash buffer, europium-labeled anti-his antibody was added and incubated for two hours at room temperature, followed by washing with DELFIA buffer. DELFIA enhancement solution was then added. After gentle shaking for 10 minutes, the plates were read in VICTOR for europium counts.

`CC(=O)Nc1cccc(-c2ccccc2C2CC(=O)c3c(C)nc(N)nc3C2)c1` (stereo not drawn) [Compound 102, N-[2′-(2-amino-4-methyl-5-oxo-5,6,7,8-tetrahydroquinazolin-7-yl)-1,1′-biphenyl-3-yl]acetamide] and `Cc1nc(N)nc2c1C(=O)CC(c1ccccc1-c1cccc(C(N)=O)c1)C2` (stereo not drawn) [Compound 91, 2′-(2-amino-4-methyl-5-oxo-5,6,7,8-tetrahydroquinazolin-7-yl)-1,1′-biphenyl-3-carboxamide] fall in the same range of IC50: 1000 to 10000 nM for the first, 1000 to 10000 nM for the second.

First: COC(=O)c1cccc(-c2ccccc2C2CC(=O)c3c(C)nc(N)nc3C2)c1 (stereo not drawn) [Compound 104, methyl 2′-(2-amino-4-methyl-5-oxo-5,6,7,8-tetrahydroquinazolin-7-yl)-1,1′-biphenyl-3-carboxylate]
Second: Cc1cccnc1-c1ccccc1C1CC(=O)c2c(C)nc(N)nc2C1 (stereo not drawn) [Compound 120, 2-amino-4-methyl-7-[2-(3-methylpyridin-2-yl)phenyl]-7,8-dihydroquinazolin-5(6H)-one]
The IC50 of the first is higher: > 10000 nM for the first, 1000 to 10000 nM for the second. The second is the more potent here.

`Cc1nc(N)nc2c1C(=O)CC(c1ccccc1N1CCCCC1)C2` (stereo not drawn) [Compound 12, 2-amino-4-methyl-7-(2-piperidin-1-yl-phenyl)-7,8-dihydro-6H-quinazolin-5-one] and `Cc1nc(N)nc2c1C(=O)CC(c1ccccc1C1=CCCCC1)C2` (stereo not drawn) [Compound 44, 2-amino-7-(2-cyclohex-1-en-1-ylphenyl)-4-methyl-7,8-dihydroquinazolin-5(6H)-one] cannot be ordered by IC50: < 1000 nM for the first, < 1000 nM for the second.

`Cc1nc(N)nc2c1C(=O)CC(c1ccc(F)cc1Br)C2` (stereo not drawn) [Compound 16, 2-amino-7-(2-bromo-4-fluoro-phenyl)-4-methyl-7,8-dihydro-6H-quinazolin-5-one] and `Cc1nc(N)nc2c1C(=O)CC(c1ccccc1-c1ccc(F)cc1F)C2` (stereo not drawn) [Compound 84, 2-amino-7-(2′,4′-difluoro-1,1′-biphenyl-2-yl)-4-methyl-7,8-dihydroquinazolin-5(6H)-one] cannot be ordered by IC50: < 1000 nM for the first, < 1000 nM for the second.

`Cc1nc(N)nc2c1C(=O)CC(c1c(Br)cnn1C)C2` (stereo not drawn) [Compound 10, 2-amino-7-(4-bromo-2-methyl-2H-pyrazol-3-yl)-4-methyl-7,8-dihydro-6H-quinazolin-5-one] and `Cc1ccncc1-c1ccccc1C1CC(=O)c2c(C)nc(N)nc2C1` (stereo not drawn) [Compound 121, 2-amino-4-methyl-7-[2-(4-methylpyridin-3-yl)phenyl]-7,8-dihydroquinazolin-5(6H)-one] cannot be ordered by IC50: > 10000 nM for the first, > 10000 nM for the second.

`Cc1nc(N)nc2c1C(=O)CC(c1ccccc1-c1ccccc1Oc1ccccc1)C2` (stereo not drawn) [Compound 113, 2-amino-4-methyl-7-(2′-phenoxy-1,1′-biphenyl-2-yl)-7,8-dihydroquinazolin-5(6H)-one] and `Cc1nc(N)nc2c1C(=O)CC(c1ccccc1-c1cccc3[nH]ccc13)C2` (stereo not drawn) [Compound 128, 2-amino-7-[2-(1H-indol-4-yl)phenyl]-4-methyl-7,8-dihydroquinazolin-5(6H)-one] cannot be ordered by IC50: < 1000 nM for the first, < 1000 nM for the second.

`Cc1nc(N)nc2c1C(=O)CC(c1ccccc1-c1ccsc1)C2` (stereo not drawn) [Compound 46, 2-amino-4-methyl-7-(2-thien-3-ylphenyl)-7,8-dihydroquinazolin-5(6H)-one] and `Cc1nc(N)nc2c1C(=O)CC(c1ccccc1-c1cccc(F)n1)C2` (stereo not drawn) [Compound 122, 2-amino-7-[2-(6-fluoropyridin-2-yl)phenyl]-4-methyl-7,8-dihydroquinazolin-5(6H)-one] cannot be ordered by IC50: < 1000 nM for the first, < 1000 nM for the second.

First: Cc1nc(N)nc2c1C(=O)CC(c1cnccc1Oc1ccccc1)C2 (stereo not drawn) [Compound 24, 2-Amino-4-methyl-7-(4-phenoxy-pyridin-3-yl)-7,8-dihydro-6H-quinazolin-5-one]
Second: Cc1nc(N)nc2c1C(=O)CC(c1cccc3ccccc13)C2 (stereo not drawn) [Compound 159, 2-amino-4-methyl-7-(1-naphthyl)-7,8-dihydroquinazolin-5(6H)-one]
The IC50 of the first is lower: < 1000 nM for the first, 1000 to 10000 nM for the second. The first is the more potent here.

First: Cc1nc(N)nc2c1C(=O)CC(c1ccccc1-c1cccnc1Cl)C2 (stereo not drawn) [Compound 80, 2-amino-7-[2-(2-chloropyridin-3-yl)phenyl]-4-methyl-7,8-dihydroquinazolin-5(6H)-one]
Second: Cc1nc(N)nc2c1C(=O)CC(c1ccccc1-c1cccc3c1NC(=O)C3)C2 (stereo not drawn) [Compound 131, 2-amino-4-methyl-7-[2-(2-oxo-2,3-dihydro-1H-indol-7-yl)phenyl]-7,8-dihydroquinazolin-5(6H)-one]
The IC50 of the first is lower: < 1000 nM for the first, 1000 to 10000 nM for the second. The first is the more potent here.

First: Cc1nc(N)nc2c1C(=O)CC(c1cccc(-c3cccnc3)c1)C2 (stereo not drawn) [Compound 29, 2-amino-4-methyl-7-(3-pyridin-3-ylphenyl)-7,8-dihydroquinazolin-5(6H)-one]
Second: COc1ccc(-c2cncnc2)c(C2CC(=O)c3c(C)nc(N)nc3C2)c1 (stereo not drawn) [Compound 75, 2-amino-7-(5-methoxy-2-pyrimidin-5-ylphenyl)-4-methyl-7,8-dihydroquinazolin-5(6H)-one]
The IC50 of the first is higher: > 10000 nM for the first, 1000 to 10000 nM for the second.

`Cc1nc(N)nc2c1C(=O)CC(c1ccccc1C1=CCCC1)C2` (stereo not drawn) [Compound 40, 2-amino-7-(2-cyclopent-1-en-1-ylphenyl)-4-methyl-7,8-dihydroquinazolin-5(6H)-one] and `Cc1nc(N)nc2c1C(=O)CC(c1cccnc1C1=CCCCC1)C2` (stereo not drawn) [Compound 45, 2-amino-7-(2-cyclohex-1-en-1-ylpyridin-3-yl)-4-methyl-7,8-dihydroquinazolin-5(6H)-one] cannot be ordered by IC50: < 1000 nM for the first, < 1000 nM for the second.

In the case of `COc1ccccc1-c1cc(F)ccc1C1CC(=O)c2c(C)nc(N)nc2C1` (stereo not drawn) [Compound 95, 2-amino-7-(5-fluoro-2′-methoxy-biphenyl-2-yl)-4-methyl-7,8-dihydro-6H-quinazolin-5-one], the IC50 is reported as < 1000 nM.

Same assay, conditions: Table II; read-out: Hsp90 IC50 Range

`COc1cccc(Cc2nc(N)nc3c2C(=O)CC(c2ccccc2)C3)c1` (stereo not drawn) [Compound 306, 2-amino-4-(3-methoxy-benzyl)-7-phenyl-7,8-dihydro-6H-quinazolin-5-one] and `COc1cccc(-n2ccnc2C2CC(=O)c3c(C)nc(N)nc3C2)c1` (stereo not drawn) [Compound 190, 2-amino-7-[1-(3-methoxy-phenyl)-1H-imidazol-2-yl]-4-methyl-7,8-dihydro-6H-quinazolin-5-one] fall in the same range of IC50: 1000 to 10000 nM for the first, 1000 to 10000 nM for the second.

First: CCc1cc(-n2ccnc2C2CC(=O)c3c(C)nc(N)nc3C2)ccc1C (stereo not drawn) [Compound 333, 2-amino-7-[1-(3-ethyl-4-methyl-phenyl)-1H-imidazol-2-yl]-4-methyl-7,8-dihydro-6H-quinazolin-5-one]
Second: Cc1nc(N)nc2c1C(=O)CC(c1nccn1C1CCCC1)C2 (stereo not drawn) [Compound 189, 2-amino-7-(1-cyclopentyl-1H-imidazol-2-yl)-4-methyl-7,8-dihydro-6H-quinazolin-5-one]
The IC50 of the first is higher: 1000 to 10000 nM for the first, < 1000 nM for the second. The second is the more potent here.

First: Nc1ncc2c(n1)CC(c1ccccc1-c1cccc(F)n1)CC2=O (stereo not drawn) [Compound 245, 2-amino-7-[2-(6-fluoro-pyridin-2-yl)-phenyl]-7,8-dihydro-6H-quinazolin-5-one]
Second: CNc1cccc(-c2cc(F)ccc2C2CC(=O)c3c(C)nc(N)nc3C2)n1 (stereo not drawn) [Compound 295, 2-amino-7-[4-fluoro-2-(6-methylamino-pyridin-2-yl)-phenyl]-4-methyl-7,8-dihydro-6H-quinazolin-5-one]
The IC50 of the first is lower: < 1000 nM for the first, 1000 to 10000 nM for the second.

`COc1cccc(-c2cc(Cl)ccc2C2CC(=O)c3c(C)nc(N)nc3C2)n1` (stereo not drawn) [Compound 251, 2-amino-7-[4-chloro-2-(6-methoxy-pyridin-2-yl)-phenyl]-4-methyl-7,8-dihydro-6H-quinazolin-5-one] and `COc1cccc(-c2scnc2[C@@H]2CC(=O)c3c(C)nc(N)nc3C2)n1` [Compound 298, (S)-2-amino-7-[5-(6-methoxy-pyridin-2-yl)-thiazol-4-yl]-4-methyl-7,8-dihydro-6H-quinazolin-5-one] cannot be ordered by IC50: < 1000 nM for the first, < 1000 nM for the second.

First: COc1ccc(F)c(-c2scnc2C2CC(=O)c3c(C)nc(N)nc3C2)c1 (stereo not drawn) [Compound 289, 2-amino-7-[5-(2-fluoro-5-methoxy-phenyl)-thiazol-4-yl]-4-methyl-7,8-dihydro-6H-quinazolin-5-one]
Second: Cc1nc(N)nc2c1C(=O)CC(c1ncsc1-c1cc(F)ccc1F)C2 (stereo not drawn) [Compound 292, 2-amino-7-[5-(2,5-difluoro-phenyl)-thiazol-4-yl]-4-methyl-7,8-dihydro-6H-quinazolin-5-one]
The IC50 of the first is higher: 1000 to 10000 nM for the first, < 1000 nM for the second.

`Cc1nc(N)nc2c1C(=O)CC(c1ncccc1OC1CCCC1)C2` (stereo not drawn) [Compound 177, 2-amino-7-(3-cyclopentyloxy-pyridin-2-yl)-4-methyl-7,8-dihydro-6H-quinazolin-5-one] and `Cc1nc(N)nc2c1C(=O)CC(c1ncccc1OC(C)C)C2` (stereo not drawn) [Compound 175, 2-amino-7-(3-isopropoxy-pyridin-2-yl)-4-methyl-7,8-dihydro-6H-quinazolin-5-one] cannot be ordered by IC50: < 1000 nM for the first, < 1000 nM for the second.

Compared with `Cc1nc(N)nc2c1C(=O)CC(c1cccc(F)c1Br)C2` (stereo not drawn) [Compound 237, 2-amino-7-(2-bromo-3-fluoro-phenyl)-4-methyl-7,8-dihydro-6H-quinazolin-5-one], `Cc1nc(N)nc2c1C(=O)CC(c1ccccc1SC(C)(C)C)C2` (stereo not drawn) [Compound 180, 2-amino-7-(2-tert-butylsulfanyl-phenyl)-4-methyl-7,8-dihydro-6H-quinazolin-5-one] is lower in IC50: 1000 to 10000 nM for the first, < 1000 nM for the second.

`Cc1nc(N)nc2c1C(=O)CC(c1ccc(F)cc1-c1ncc(C(F)(F)F)cn1)C2` (stereo not drawn) [Compound 270, 2-amino-7-[4-fluoro-2-(5-trifluoromethyl-pyrimidin-2-yl)-phenyl]-4-methyl-7,8-dihydro-6H-quinazolin-5-one] and `Cc1nc(N)nc2c1C(=O)CC(c1ccc(F)cc1OCC1CCCC1)C2` (stereo not drawn) [Compound 263, 2-amino-7-(2-cyclopentylmethoxy-4-fluoro-phenyl)-4-methyl-7,8-dihydro-6H-quinazolin-5-one] cannot be ordered by IC50: < 1000 nM for the first, < 1000 nM for the second.
